Data: patent US10889562B2, “Prodrugs of Nrf2 activating compounds and uses thereof” (Rigel Pharmaceuticals, Inc., priority 2018, dated 2021)

Experiments:
[1] = Glutathione depletion assay (Michael reaction with reduced glutathione followed by 1H NMR); conditions: 2 equiv. reduced glutathione, d6-DMSO, 35° C.
Text: Accordingly, the present compounds may be assessed in vitro by reaction with glutathione as follows:
(with the top securely fastened).
In all the above cases, dis-appearance of the alkene proton signals from the starting material are used to determine the extent of Michael reaction with glutathione.
As would be understood by those of skill in the art, the above experiments can be repeated by varying the equivalents of reduced glutathione (0.5 to 2 equivalents); the reactions can also be run in a mixture of d6-DMSO and D2O; and the temperature of the reaction can also be varied from room temperature to 35° C. (35° C. being used to mimic body temperature). As used herein “majority reaction” means a greater than 50% reduction in alkene proton signal as observed by ^1H NMR.

[2] = tested on: experimental autoimmune encephalomyelitis (EAE); experiment: Experimental autoimmune encephalomyelitis (EAE) animal model; assay type: in vivo, mice (C57BL/6); conditions: mice, dosed at 60 mg/kg beginning on the day of immunization
[3] = tested on: NrF2 (Nuclear factor (erythroid-derived 2)-like 2); experiment: NrF2 activation in a whole cell nuclear translocation assay; assay type: cell-based
Protocol: Compounds are tested in a NrF2 (Nuclear factor (erythroid-derived 2)-like 2) translocation assay by adapting the methods set forth in U.S. Pat. No. 8,101,373, the disclosure of which is incorporated herein by reference. A result of NrF2 activation in the assay by the present compounds is an indication of their anti-inflammatory activity.
In addition to monomethyl fumarate and dimethyl fumarate, bardoxolone methyl may be used as a positive control.

Row | SMILES | time to majority reaction with glutathione (greater than 50% reduction in alkene proton signal by 1H NMR) [1] [h] | onset of disease paralysis [2] | EC50 [3] [µM]
1 | COC(=O)/C=C/n1nnn(C)c1=O [methyl (E)-3-(4-methyl-5-oxo-4,5-dihydro-1H-tetrazol-1-yl)acrylate] | ≤ 30 |  | 
2 | COC(=O)/C=C/n1nn[nH]c1=O [methyl (E)-3-(5-oxo-4,5-dihydro-1H-tetrazol-1-yl)acrylate] | ≤ 30 | significantly prevents the onset of disease paralysis | 
3 | COC(=O)/C=C/C(=O)O [monomethylfumarate] |  |  | ~127
